The values that follow are results of earlier work, collected in publication PMC12901815 (Environmental Analysis, Health and Toxicology, 2025).

The conditions of this series: male Alderley Park rats, oral administration; cited from earlier work.

Turning to polyaminopropylbiguanide [PHMB], the “tissue distribution of radioactivity” value was “the highest radioactivity occurred in adipose tissue, followed by kidneys and liver, without detectable brain accumulation”.
